Consider 14 molecules from the Kinase Knowledgebase extract (Sharma et al. 2016).

Common to all, as to experiment: Enzyme Assay
For test [1], the target named is PIK3CB (Human) (UniProt P42338).
Test [2] has as its target PIK3CD (Human) (UniProt O00329).
For test [3], the target named is PIK3CG (human) (UniProt P48736).
Chain of PIK3CG (human) (P48736 whole entry, looked up): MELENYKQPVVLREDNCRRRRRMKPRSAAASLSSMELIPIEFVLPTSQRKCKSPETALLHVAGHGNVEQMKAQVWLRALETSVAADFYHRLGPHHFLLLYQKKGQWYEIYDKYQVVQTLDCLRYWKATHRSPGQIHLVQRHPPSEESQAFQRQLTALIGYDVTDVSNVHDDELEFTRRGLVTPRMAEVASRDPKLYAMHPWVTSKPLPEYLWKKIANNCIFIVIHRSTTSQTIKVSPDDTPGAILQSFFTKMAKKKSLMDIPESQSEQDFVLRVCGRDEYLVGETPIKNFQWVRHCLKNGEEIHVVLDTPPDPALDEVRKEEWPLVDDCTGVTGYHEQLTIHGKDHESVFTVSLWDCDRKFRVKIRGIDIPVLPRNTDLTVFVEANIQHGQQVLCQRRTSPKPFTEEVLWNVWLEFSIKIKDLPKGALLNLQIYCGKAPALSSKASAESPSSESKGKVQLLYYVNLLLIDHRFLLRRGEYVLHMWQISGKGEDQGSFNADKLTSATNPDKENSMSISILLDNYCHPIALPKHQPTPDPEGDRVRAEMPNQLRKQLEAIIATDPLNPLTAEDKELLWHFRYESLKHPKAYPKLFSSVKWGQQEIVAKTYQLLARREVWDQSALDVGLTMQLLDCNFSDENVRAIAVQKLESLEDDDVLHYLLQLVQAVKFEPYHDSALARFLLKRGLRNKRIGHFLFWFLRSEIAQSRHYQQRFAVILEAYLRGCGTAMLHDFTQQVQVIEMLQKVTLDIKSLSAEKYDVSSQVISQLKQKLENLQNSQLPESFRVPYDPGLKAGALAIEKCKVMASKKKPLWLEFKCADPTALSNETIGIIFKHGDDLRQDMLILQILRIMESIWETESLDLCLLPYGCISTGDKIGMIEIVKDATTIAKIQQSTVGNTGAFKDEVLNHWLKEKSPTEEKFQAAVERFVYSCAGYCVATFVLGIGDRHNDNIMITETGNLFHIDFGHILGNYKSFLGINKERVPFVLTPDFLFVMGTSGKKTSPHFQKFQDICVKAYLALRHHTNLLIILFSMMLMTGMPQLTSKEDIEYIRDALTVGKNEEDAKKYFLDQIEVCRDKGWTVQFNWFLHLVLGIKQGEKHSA

Chain of PIK3CB (Human) (P42338 whole entry, looked up): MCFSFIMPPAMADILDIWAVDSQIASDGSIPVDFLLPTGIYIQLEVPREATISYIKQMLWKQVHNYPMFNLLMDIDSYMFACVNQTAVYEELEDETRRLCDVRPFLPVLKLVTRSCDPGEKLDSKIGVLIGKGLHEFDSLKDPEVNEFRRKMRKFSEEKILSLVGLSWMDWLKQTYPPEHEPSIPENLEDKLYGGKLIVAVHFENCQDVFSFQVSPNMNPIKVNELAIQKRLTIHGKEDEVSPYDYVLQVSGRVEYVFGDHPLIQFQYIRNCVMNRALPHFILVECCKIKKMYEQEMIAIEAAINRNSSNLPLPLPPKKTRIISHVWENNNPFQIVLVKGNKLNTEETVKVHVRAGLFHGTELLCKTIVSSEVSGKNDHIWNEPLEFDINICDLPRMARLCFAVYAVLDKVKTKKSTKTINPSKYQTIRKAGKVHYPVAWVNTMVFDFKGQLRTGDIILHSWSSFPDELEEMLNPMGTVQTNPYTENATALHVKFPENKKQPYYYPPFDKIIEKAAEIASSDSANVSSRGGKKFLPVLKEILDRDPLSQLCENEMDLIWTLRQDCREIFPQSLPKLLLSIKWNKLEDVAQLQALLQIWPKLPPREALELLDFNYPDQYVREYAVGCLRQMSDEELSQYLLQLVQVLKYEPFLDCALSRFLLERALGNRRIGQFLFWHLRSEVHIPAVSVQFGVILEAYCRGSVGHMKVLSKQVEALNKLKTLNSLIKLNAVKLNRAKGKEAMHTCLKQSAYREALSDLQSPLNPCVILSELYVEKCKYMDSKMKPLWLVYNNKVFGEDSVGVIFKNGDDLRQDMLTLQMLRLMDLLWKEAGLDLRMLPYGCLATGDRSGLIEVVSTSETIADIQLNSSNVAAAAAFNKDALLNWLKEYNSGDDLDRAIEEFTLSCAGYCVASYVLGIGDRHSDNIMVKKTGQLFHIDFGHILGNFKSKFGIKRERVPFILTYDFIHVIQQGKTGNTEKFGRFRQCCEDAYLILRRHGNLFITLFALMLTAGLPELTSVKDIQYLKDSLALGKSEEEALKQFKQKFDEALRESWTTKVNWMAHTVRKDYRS
Chain of PIK3CD (Human) (O00329 whole entry, looked up): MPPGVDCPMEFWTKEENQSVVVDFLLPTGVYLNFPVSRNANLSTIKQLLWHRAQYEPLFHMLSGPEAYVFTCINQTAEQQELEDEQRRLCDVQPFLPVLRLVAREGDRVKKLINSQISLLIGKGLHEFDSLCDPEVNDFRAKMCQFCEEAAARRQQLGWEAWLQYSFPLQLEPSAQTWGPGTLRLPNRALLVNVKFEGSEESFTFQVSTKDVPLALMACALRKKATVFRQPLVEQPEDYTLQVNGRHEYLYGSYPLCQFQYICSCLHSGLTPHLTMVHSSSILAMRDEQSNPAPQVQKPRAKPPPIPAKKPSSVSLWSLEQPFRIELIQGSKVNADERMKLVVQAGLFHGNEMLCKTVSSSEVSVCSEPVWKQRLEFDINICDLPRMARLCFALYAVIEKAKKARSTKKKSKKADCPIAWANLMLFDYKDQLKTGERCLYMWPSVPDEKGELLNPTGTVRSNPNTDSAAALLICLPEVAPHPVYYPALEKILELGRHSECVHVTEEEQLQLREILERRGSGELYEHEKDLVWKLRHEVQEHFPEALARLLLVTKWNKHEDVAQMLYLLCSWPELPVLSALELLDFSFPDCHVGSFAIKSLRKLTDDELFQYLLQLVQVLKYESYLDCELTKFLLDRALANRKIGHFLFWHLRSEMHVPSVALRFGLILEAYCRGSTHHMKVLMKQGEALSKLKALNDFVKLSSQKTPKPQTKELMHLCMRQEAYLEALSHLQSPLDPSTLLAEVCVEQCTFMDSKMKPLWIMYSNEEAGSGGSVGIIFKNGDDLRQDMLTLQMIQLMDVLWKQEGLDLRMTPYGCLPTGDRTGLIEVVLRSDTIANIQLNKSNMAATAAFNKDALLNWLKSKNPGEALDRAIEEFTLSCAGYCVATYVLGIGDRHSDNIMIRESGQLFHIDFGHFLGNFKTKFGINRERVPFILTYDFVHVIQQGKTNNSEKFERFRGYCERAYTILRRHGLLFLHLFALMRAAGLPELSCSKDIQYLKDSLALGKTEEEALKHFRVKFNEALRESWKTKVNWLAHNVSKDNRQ

The IC50 is the concentration that inhibits the measured activity by half. The low end stands for greater potency, the high end for weaker potency. For `C[S@+]([O-])c1c[nH]c2ncnc(N3C[C@@H](C#N)C[C@H]3c3nn4ccc(Cl)c4c(=O)n3-c3ccccc3)c12`, the half-inhibitory concentration (IC50) came out at 0.256 µM in test [1], 0.021 µM in test [2] and 0.038 µM in test [3].
The molecule `N#Cc1c[nH]c2ncnc(N3CC[C@H]3c3nn4cccc4c(=O)n3-c3ccccc3)c12` gave an IC50 in test [2] of 0.093 µM.
As to `Nc1ncc(C(=O)C(F)F)c(N2CC[C@H]2c2nn3ccc(Cl)c3c(=O)n2-c2ccccc2)n1`, the IC50 turned out to be 0.038 µM in test [2] and 0.01 µM in test [3].
On to `COc1ncc(-c2n[nH]c3ncnc(N4CCC[C@H]4c4nn5ccc(Cl)c5c(=O)n4-c4ccccc4)c23)cn1`, for which the IC50 in test [1] amounted to 0.047 µM; in test [2] it was 0.001 µM; in test [3], 0.015 µM.
Regarding `Nc1ncc([N+](=O)O)c(N2CC[C@H]2c2nn3ccc(Cl)c3c(=O)n2-c2ccccc2)n1`, the concentration for half-maximal inhibition (IC50) in test [2] came to 0.04 µM; in test [3], 0.025 µM.
Regarding `COc1cccc(-n2c([C@@H]3CCCN3c3ncnc4[nH]cc(C#N)c34)nn3cccc3c2=O)c1`, the results for the IC50 in test [2] and in test [3] were 0.005 µM and 0.089 µM, respectively.
For the molecule `Nc1nc(N2CCC[C@H]2c2nn3cccc3c(=O)n2-c2ccccc2)c2nc[nH]c2n1`, the IC50 in test [2] was found to be 0.006 µM; in test [3] it was 0.04 µM.
In the case of `CC(Nc1ncnc2[nH]cc(C#N)c12)c1cc2cccn2c(=O)n1-c1ccccc1` (configuration not stated), in test [3], the IC50 was determined as 0.105 µM.
For `C=Cc1ccn2nc([C@@H]3CCN3c3ncnc4[nH]cc(C#N)c34)n(-c3ccccc3)c(=O)c12`, the half-maximal inhibitory concentration (IC50) in test [2] was 0.3 µM.
Take `O=c1c2c(Br)ccn2nc([C@@H]2CCN2c2ncnc3[nH]cnc23)n1-c1ccccc1`: the IC50 in test [2] turned out to be 0.156 µM; in test [3] it was 0.287 µM.
For `N#Cc1n[nH]c2ncnc(N3CCC[C@H]3c3nn4cccc4c(=O)n3-c3ccccc3)c12`, the IC50 in test [2] came out at 0.026 µM; in test [3], 0.231 µM.
As for `C[C@H]1CN(c2nc(N)nc3c2C(=O)CCN3)[C@@H]1c1nn2ccc(Cl)c2c(=O)n1-c1ccccn1`, the concentration for half-maximal inhibition (IC50) in test [1] amounted to 1.58 µM; in test [2], 0.012 µM; in test [3] it was 0.018 µM.
As to `C[S@@+]([O-])c1c[nH]c2ncnc(N3C[C@@H](C#N)C[C@H]3c3nn4ccc(Cl)c4c(=O)n3-c3ccccc3)c12`, the 50% inhibitory concentration (IC50) in test [2] came out at 0.064 µM; in test [3], 0.016 µM.
In test [2], `N#Cc1c(N)ncnc1OCc1cc2ncc(Cl)n2c(=O)n1-c1ccccc1` came in with an IC50 of 0.136 µM.
